The results in this text go back to paper PMC5101207, “The Oxidosqualene Cyclase from the Oomycete Saprolegnia parasitica Synthesizes Lanosterol as a Single Product” (Frontiers in Microbiology, 2016).

In the experiment the target is T1, SpLASA (Saprolegnia parasitica, UniProt A0A067BWL7).
T1 construct: gene SPRG_11783; full length, 805 residues (2415 bp amplicon from mycelium cDNA), C-terminal His6 tag (pET-DEST42), E. coli BL21 (DE3), about 91 kDa; not the truncated paralogue SpLASB (SPRG_17895, 472 residues)
T1 sequence (A0A067BWL7 1-805): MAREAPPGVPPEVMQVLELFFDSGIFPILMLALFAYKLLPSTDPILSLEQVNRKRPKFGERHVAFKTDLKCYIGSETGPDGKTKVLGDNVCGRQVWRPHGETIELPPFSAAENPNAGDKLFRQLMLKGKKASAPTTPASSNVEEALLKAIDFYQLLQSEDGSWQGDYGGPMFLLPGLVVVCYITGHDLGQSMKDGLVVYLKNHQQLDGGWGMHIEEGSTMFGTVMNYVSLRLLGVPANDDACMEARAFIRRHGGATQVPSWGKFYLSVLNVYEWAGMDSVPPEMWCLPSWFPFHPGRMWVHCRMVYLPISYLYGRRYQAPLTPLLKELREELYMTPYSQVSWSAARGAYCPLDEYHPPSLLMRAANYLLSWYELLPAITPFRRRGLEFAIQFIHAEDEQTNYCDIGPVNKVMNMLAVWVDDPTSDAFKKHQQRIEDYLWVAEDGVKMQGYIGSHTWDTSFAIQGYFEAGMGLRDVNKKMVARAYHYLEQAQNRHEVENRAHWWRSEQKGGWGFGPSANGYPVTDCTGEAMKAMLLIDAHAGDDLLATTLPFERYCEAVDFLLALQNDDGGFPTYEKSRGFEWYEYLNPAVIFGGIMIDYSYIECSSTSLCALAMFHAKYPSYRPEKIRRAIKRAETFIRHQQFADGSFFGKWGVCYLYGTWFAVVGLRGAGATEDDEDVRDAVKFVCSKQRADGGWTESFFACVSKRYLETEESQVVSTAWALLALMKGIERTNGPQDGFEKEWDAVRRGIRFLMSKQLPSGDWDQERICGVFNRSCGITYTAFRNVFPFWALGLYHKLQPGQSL
Put plainly: GC-MS of silylated sterols after incubation with purified enzyme. Type of experiment: biochemical. As to conditions: 50 mM sodium phosphate pH 7.4, 25°C, 24 h; 10.7 μg substrate, 37.5-112.5 μg protein.

For the compound `CC(C)=CCC/C(C)=C/CC/C(C)=C/CC/C=C(\C)CC/C=C(\C)CC[C@@H]1OC1(C)C` [2,3-oxidosqualene], the “GC-MS of silylated sterols after incubation with purified enzyme” value was “These experiments confirmed the specific conversion of OS into LA”.

`CC(C)=CCC[C@@H](C)[C@H]1CC[C@@]2(C)C3=C(CC[C@]12C)[C@@]1(C)CC[C@H](O)C(C)(C)[C@@H]1CC3` [lanosterol]: the “GC-MS of silylated sterols after incubation with purified enzyme” value was “the proportion of LA increased linearly with increasing protein concentration”.
